row,Structure (SMILES),melting point
1,CC(=O)N(c1ccccc1)c1ccc(C(=O)CBr)cc1,152 to 153 °C
2,COc1cc(-n2nc(C)[nH]c2=O)c(F)cc1Cl,193 to 195 °C
3,CN1C(=O)CC[C@H]1COc1cccnc1,73 to 74 °C
4,CC1(C)CC(=C(c2ccc(O)cc2)c2ccc(C(N)=O)cc2)CC(C)(C)C1,209 to 210 °C
5,Cc1ccccc1OCC(O)CN (stereo not given),64 °C
6,CC(CCc1cc2cccnc2n(-c2cccc([N+](=O)[O-])c2)c1=O)c1ccncc1 (stereo not given),154 to 155 °C
7,NC(=O)C(N)Cc1ccc([N+](=O)[O-])cc1 (stereo not given),160 to 162 °C
8,Cc1ccc(NCC2CCN(C(C)C3CC3)CC2)c(C(=O)Nc2ccc(Cl)cn2)c1 (stereo not given),79 to 81 °C
9,CCN(CC)CCOc1ccc(Nc2ncc3c(n2)N(Cc2ccccc2)C(=O)N(c2c(Cl)cccc2Cl)C3)cc1,106 °C
10,CC(=O)N1c2ccccc2SC1C#N (stereo not given),92 to 93 °C
11,CS(=O)(=O)C=C(N)C1(c2ccc(Cl)cc2)CCC1,125 to 126 °C
12,NC(=NO)c1nn([C@@H]2O[C@H](CO)[C@@H](O)[C@H]2O)c2ncnc(N)c12,242 to 244 °C
13,COC1C(O)C(CO)OC1n1cnc2c(N)nc(F)nc21 (stereo not given),239 to 241 °C
14,Cc1c(Cl)nc2sc(S(=O)(=O)Cc3ccccc3)nn2c1=O,211 to 213 °C
15,O=c1c2ccccc2[nH]n1-c1ccccc1F,156 to 159 °C
16,CCOC(=O)[C@H](Cc1cc(Cl)c(N)c(Cl)c1)NC(=O)C(F)(F)F,124 to 125 °C
17,C=CCN(CC=C)Cc1nc(-c2ncn3c2[C@@H]2CCN2C(=O)c2cc(F)ccc2-3)no1,100 to 105 °C
18,CC1COCC(C)N1c1cccc([N+](=O)[O-])c1 (stereo not given),127 to 128 °C
19,O=C(O)c1nn(CCCCCCl)c2c1CCc1cc(Cl)sc1-2,205 to 208 °C
20,O=C(O)[C@H](CS)N(Sc1nc2cc(Cl)ccc2s1)C(=O)Cc1ccccc1,155 to 158 °C
21,O=C(c1cc(Cl)nc(Cl)c1)n1ccnc1,148 to 151 °C
22,COc1cc(COc2nn(-c3ccccc3)cc2/C=C/c2nnco2)ccc1OCc1nc(-c2ccco2)oc1C,162 to 163 °C
23,CCC(=O)NCc1ccc2ccn(C3CCN(CCc4ccccc4F)CC3)c2c1,118 to 119 °C
24,COc1cc2cc(C=Cc3ccccc3Cl)[nH]c2cc1OCc1ccccc1,192 to 194 °C
25,O=C(O)CC(O)c1ccc(-c2ccc(Cl)c(Cl)c2)o1 (stereo not given),95 to 96 °C

row,Structure (SMILES),melting point
1,Cc1cccc2c1Sc1ccccc1N2,115 °C
2,O=C(O)c1cncc(-c2ccc3c(C(=O)NCC45CC6CC(CC(C6)C4)C5)c(Cl)ccc3n2)c1,247 °C
3,COC(=O)C(C)(C)S(=O)(=O)N1CCC(c2ccc(-c3nccs3)c(C)c2)CC1,111 to 114 °C
4,COc1cccc([C@@H]2CC[C@H](c3cccc(O)c3)N2C(=O)CNC(=O)Nc2cccc(C(=O)O)c2)c1 (relative stereo),172 °C
5,O=[N+]([O-])c1ccc(Oc2cc3ccccc3cc2Oc2ccc([N+](=O)[O-])c(O)c2)cc1O,179 to 181 °C
6,Cc1cccc(OCC(F)(F)F)c1N(Cc1cc[nH]n1)C(=O)CCl,104 to 105 °C
7,CCCCOC(=O)NC(=O)C1c2ccccc2Oc2ccccc21,180 to 183 °C
8,O=C(Nc1cccc2cc(C(=O)O)[nH]c12)c1cc(OCc2ccccc2F)cc(OCc2ccccc2F)c1,271 to 273 °C
9,CC1COc2c(C3CC3)c(F)cc3c(=O)c(C(=O)O)cn1c23 (stereo not given),263 to 265 °C
10,COC(=O)c1c(F)cc(OCCNC(=O)C2Cc3ccccc3N2S(=O)(=O)c2ccc(-c3ccc(F)cc3C)cc2)cc1F (stereo not given),65 to 72 °C
11,Cn1nnc(-c2cccc([N+](=O)[O-])c2)n1,105 °C
12,O=c1c2ccccc2[nH]c2ccc(O)c(Cl)c12,184 to 191 °C
13,Cc1cc(-c2cccc(N)n2)c(C)cc1OCCN1CCN(CCc2ccccc2)CC1,> 220 °C
14,COc1ccsc1-c1nsc2ccc(N3C(=O)C4=C(CCCC4)C3=O)cc12,146 to 149 °C
15,CCCCn1c(=O)c2c(ncn2S(=O)(=O)c2ccc(C(C)(C)C)cc2)n(CCCC)c1=O,105 to 107 °C
16,CC1=C(C(=O)c2ccc(C(C)(C)C)cc2)C(=O)C2C=CC=CC2C1=O (stereo not given),64 to 65 °C
17,COCCC1CCCCc2c1oc(=O)c(C(c1ccccc1)C1CC1)c2O (stereo not given),58 to 60 °C
18,CC1(C)C(=O)Nc2cc(C(=O)Nc3cccc(N)c3)ccc21,244 to 245 °C
19,Clc1ccc2[nH]nc(I)c2c1,198 to 199 °C
20,COC(=O)[C@H]1CC[C@H](Oc2ccc(C(=O)O)cc2)CC1,162 °C
21,O=C(O)C=NOC(CCCc1ccc(Cl)cc1)c1ccc(OCc2ccc3ccccc3n2)cc1 (stereo not given),174 to 177 °C
22,CCc1nc2c(N)nc3cc(OCc4ccc(C(=O)OC)o4)ccc3c2s1,184 to 186 °C
23,CCN(CCc1coc2c(OC)cccc12)C1COc2c(F)ccc(C(N)=O)c2C1 (stereo not given),124 to 132 °C
24,Cc1c(NC(=O)c2ccc(OC[C@@H]3CCCO3)cc2)ccc2cc(CNCC(C)C)cnc12,142 to 143 °C
25,CCc1ccc2c(c1)C(=O)CCCC(=O)N2,138 to 140 °C

row,Structure (SMILES),melting point
1,Cc1ccc(NC(=S)Nc2ncccc2OCc2c(F)cccc2Cl)cc1,138 to 140 °C
2,CON(C(=O)c1cn(C)nc1C(F)F)C(CF)Cc1c(Cl)cc(Cl)cc1Cl (stereo not given),117 to 118 °C
3,Cc1ccc2c(n1)Oc1ccc(C(C)C(=O)OCC(=O)N(C)C)cc1C2 (stereo not given),150 to 151 °C
4,CCCCC1OC(=O)c2cc([N+](=O)[O-])ccc21 (stereo not given),53 to 55 °C
5,Cc1c(C(=O)N[C@H](C)[C@](O)(Cn2cncn2)c2ccc(F)cc2F)cnn1-c1cccc(C(F)(F)F)c1,146 to 147 °C
6,CC1(C)CC(=O)c2c(-c3ccccc3)sc(-c3nccs3)c2C1,141 to 143 °C
7,CC(C)Oc1ccc(COc2ccc(CC(=O)O)cc2Cl)cc1Cl,129 to 130 °C
8,COC(c1ccccc1)C(C)([N+](=O)[O-])[N+](=O)[O-] (stereo not given),53 to 55 °C
9,Cc1noc(NS(=O)(=O)c2ccccc2-c2ccc(Cn3c(=O)oc4ccccc43)cc2)c1C,182 to 183 °C
10,COc1cccc(Nc2ccc(Nc3ncnc4cc(-c5ccccc5)sc34)cc2)c1,189 to 191 °C
11,CCOC(=O)C(=CNc1nncs1)C(=O)OCC,107 to 111 °C
12,Cc1c(-c2cc(O)c(Cl)cc2F)ncnc1C(F)(F)F,141 to 142 °C
13,N#CSc1nc(C(F)(F)C(F)F)nc2ccccc12,112 to 114 °C
14,CC[C@H]1c2cccn2-c2cc(F)c(F)cc2N1S(=O)(=O)c1ccc(O)c(C)c1,161 to 163 °C
15,O=C(OC1CCCCC1)C(c1ccccc1)n1cnc2[nH]ncc2c1=S (stereo not given),170 to 173 °C
16,Cc1c(C#N)ncn1-c1cccc(O)c1,205 to 207 °C
17,O=c1ccc(Br)cn1CC1(O)CCN(Cc2ccccc2F)CC1,184 to 186 °C
18,C=CCOn1c(=O)c2cc(F)c(F)cc2n(Cc2ccccc2)c1=O,130 to 132 °C
19,COc1cccn2c(=O)c(CCN3CCc4oc5ccccc5c4C3)c(C)nc12,151 °C
20,Sc1nccn1Cc1ccc(Cl)cc1,187 to 189 °C
21,COc1ccc(Oc2cc3nc(-c4ccc(Cl)cc4Cl)oc3cc2[N+](=O)[O-])cc1,144 to 146 °C
22,Cc1sc(-c2ccccc2)nc1COc1ccc(COc2ncccc2CC(=O)O)cc1,128 to 129 °C
23,CC1(C)CCC(C)(C)c2cc(S(=O)(=O)c3ccc(C(=O)O)cc3)ccc21,218 to 220 °C
24,COC(=O)c1cccc(OCc2ccc3ccccc3c2)c1C,47 to 48 °C
25,O=C(/C=C/c1cccc(S(=O)(=O)N2CCN(CC(c3ccccc3)c3ccccc3)CC2)c1)NO,117 °C

row,Structure (SMILES),melting point
1,CSC1=NCCN1C(=O)c1cccnc1Cl,100 to 102 °C
2,CC(CCO)C(c1cc(F)ccc1F)S(=O)(=O)c1ccc(Cl)cc1 (stereo not given),65 to 67 °C
3,CN(c1nc(-c2cc3ccccc3[nH]c2=O)cs1)S(=O)(=O)c1cccc(F)c1,247 to 249 °C
4,CCCC(=O)c1c[nH]c2ccc(OC)cc2c1=O,252 to 254 °C
5,CCCNc1nnc(C)o1,46.5 to 47.5 °C
6,Oc1ccc(OCCCCOc2ccc(O)cc2)cc1,202 to 204 °C
7,COc1ccc(CC#N)c(Cl)c1Cl,118 to 119 °C
8,Cc1ccccc1-c1nn(C(C)(C)C(=O)N(C)C)cc1Cl,134 to 136 °C
9,CCCCCCCNC(=O)Nc1ccccc1C(=O)NCCn1cnc(-c2ccccc2)c1-c1ccccc1,170 °C
10,N[C@@]1(C(=O)O)C[C@H](NC(=O)Nc2ccccc2Cl)[C@H]2[C@H](C(=O)O)[C@H]21 (relative stereo),> 250 °C
11,COc1ccc(S(=O)(=O)N(Cc2ccccc2)C(Cc2nnn(C)n2)C(=O)NO)cc1 (stereo not given),72 to 75 °C
12,COC(=O)c1nc(CCN(C)C)n2c1CN=C(c1ccccc1Cl)c1cc(Cl)ccc1-2,203 to 204 °C
13,COC(=O)c1cccc(-c2ncc(N=CN(C)C)cn2)c1,146 °C
14,CCCc1c2c(c([N+](=O)[O-])c3c(=O)cc(C(=O)OCC)oc13)CC(C(=O)OCC)CC2 (stereo not given),164 to 166 °C
15,NC(=S)NN=C(CCC(=O)N1CCCCC1)c1ccccc1,181 to 183 °C
16,CN1C(=O)N(CC(COc2ccc(-c3ccncc3)cc2)N(O)C=O)C(=O)C1(C)C (stereo not given),217 to 218 °C
17,C=C(C)COc1cc(C)c(NC=O)c(C)c1CC(=C)C,109 °C
18,CC(C)(C)C1CCCC(=Cc2ccc(Cl)cc2)C1(O)Cn1cncn1 (stereo not given),171 °C
19,CCOC(=O)Nc1ncc(-c2nc3ccccc3c(=O)n2-c2ccccc2OC)s1,263 to 264 °C
20,O=C(Cl)N1CC(Oc2cccc(Br)c2)C1,87 to 88 °C
21,CC(c1ccc(C=Cc2ccccc2)s1)N(O)C(N)=O (stereo not given),160 to 163 °C
22,Cc1cc(C(O)CN2CCC(O)(c3cccc(F)c3)CC2)c(C)cc1O (stereo not given),193 °C
23,O=C(NC(O)C(F)(F)F)c1ccc(Cl)cc1 (stereo not given),140 °C
24,O=S(=O)(Nc1cccc(CCOCc2ccc(-c3cccc(Cl)c3)cc2)c1)C(F)(F)F,105 to 107 °C
25,COc1cnc(N2CCN(c3ccc(-n4c(C)n[nH]c4=O)cc3)CC2)nc1,> 300 °C

# Reference: a melting point compilation (Tetko et al.; mined from patent text by program, amines drawn as free bases though some values may be those of a salt)
